According to PubChem BioAssay (NCI):
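In this assay, cells in 96-well plates receive the compound at five concentrations for 48 hours. Endpoints are linearly interpolated between the surrounding concentrations. The concentration for full growth arrest is given as TGI.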

Key:
Test in all cases: inhibition of tumour cell growth, NCI panel, 48 h
RXF 393 renal = system: RXF 393 renal
IGROV1 ovarian = system: IGROV1 ovarian
SF-268 CNS = system: SF-268 CNS
RPMI-8226 leukemia = system: RPMI-8226 leukemia
CCRF-CEM leukemia = system: CCRF-CEM leukemia
SF-295 CNS = system: SF-295 CNS
OVCAR-3 ovarian = system: OVCAR-3 ovarian
SNB-75 CNS = system: SNB-75 CNS
NCI-H226 lung = system: NCI-H226 lung
K-562 leukemia = system: K-562 leukemia
PC-3 prostate = system: PC-3 prostate
KM12 colon = system: KM12 colon

Structure (SMILES) | TGI (RXF 393 renal) [µM] | TGI (IGROV1 ovarian) [µM] | TGI (SF-268 CNS) [µM] | TGI (RPMI-8226 leukemia) [µM] | TGI (CCRF-CEM leukemia) [µM] | TGI (SF-295 CNS) [µM] | TGI (OVCAR-3 ovarian) [µM] | TGI (SNB-75 CNS) [µM] | TGI (NCI-H226 lung) [µM] | TGI (K-562 leukemia) [µM] | TGI (PC-3 prostate) [µM] | TGI (KM12 colon) [µM]
O=c1[nH]nc(-c2ccc([N+](=O)[O-])cc2)[nH]1 | > 100 | > 100 | > 100 | > 100 | > 100 | > 100 | > 100 | > 100 | > 100 | > 100 | > 100 | > 100
OC(CCN1CCN(CCOC(c2ccc(F)cc2)c2ccc(F)cc2)CC1)c1ccc(Br)cc1 (configuration not stated) | 10 | 16.1 | 17.6 | 6.93 | 11.7 | 9.73 | 9.66 | 23.7 | 21.9 | 7 | 17.8 | 8.07
CCCCCc1cc(CCCC)sc1-c1ccco1 | > 100 | > 100 | > 100 | > 100 | > 75 | > 100 | > 100 | > 100 | > 100 | > 100 | > 100 | > 100
N#Cc1ccnc(C(=O)N2CCCC2C(=O)O)c1 (configuration not stated) | > 100 | > 100 | > 100 | > 100 | > 100 | > 100 | > 100 | > 100 | > 100 | > 100 | > 100 | > 100
Cc1nc2ccccc2n1Cc1ccc(NC(=S)Nc2ccccc2)cc1 | > 100 | > 100 | > 100 | > 100 | > 100 | > 100 | > 100 | > 100 | > 100 | > 100 | > 100 | > 100
O=C1CCCC2=C1CC1=C(CCCC1=O)N2c1ccc(-c2ccccc2)cc1 | > 58.9 | > 100 | > 100 | > 100 | > 100 | > 100 | > 100 | > 67.5 | > 100 | > 100 | > 100 | > 100
CC(C)(C)[Si](C)(C)OC1CCOC1(O)c1ccccn1 (configuration not stated) | > 100 | > 100 | > 100 | > 100 | > 100 | > 100 | > 100 | > 100 | > 100 | > 100 | > 100 | > 100
C[N+]1(CCCCN2c3ccccc3Sc3cc(N=[N+]=[N-])ccc32)CCN(C(=O)CCNC(=O)Cc2ccc(C(=O)c3ccccc3)cc2)CC1 | > 80 | > 77.6 | 71.5 | 61.4 | 64.2 | 45.5 | 89.2 | 43.3 | > 85.7 | > 57.7 | 40.7 | 61.2
Cc1nn(C(=O)c2ccccc2O)c2c1C(c1ccc([N+](=O)[O-])cc1)SC(N)=N2 (configuration not stated) | > 10 | > 10 | > 10 | > 10 | > 9.13 | > 10 | 9.95 | > 8.41 | > 9.22 | > 10 | > 10 | > 10
Brc1ccc2[nH]cc(-c3csc(-c4c[nH]c5ccc(Br)cc45)n3)c2c1 | 6.13 | 4.6 | 6.12 | 3.4 | 3.93 | 6.32 | 6.95 | 7.27 | 5.1 | 3.43 | 4.44 | 2.95
CN1C2CCC1C(CO)C(=O)C2 (configuration not stated) | > 100 | > 100 | > 100 | 54.1 | 27.4 | > 100 | > 100 | > 100 | > 100 | 72 | > 100 | > 100
COC(=O)[C@@H]1[C@H]2CC[C@]3(C)[C@@H](OC(C)=O)CC[C@H]3[C@@H]2CC[C@H]1C1(C)SCCS1 | 40.6 | > 100 | > 100 | 43.4 | 86.4 | 73.6 | 88.5 | > 100 | 42.3 | 94 | 86 | 74.2
CC(=O)N=S(NC(=O)c1ccc(C)cc1)C(Cl)(Cl)Cl (configuration not stated) | > 100 | 93.4 | > 100 | > 100 | 51.5 | > 100 | 52 | > 100 | > 100 | > 100 | > 100 | > 100
O=C1CCC(CCc2nc3ccccc3[nH]2)(c2ccccc2)C(=O)N1 (configuration not stated) | > 100 | > 100 | > 100 | > 100 | > 100 | > 100 | > 100 | > 100 | > 100 | > 100 | > 100 | > 100
CCOC(=O)OC1(c2ccccc2)CCN(C)CC1 | > 100 | > 100 | > 100 | > 100 | > 100 | > 100 | > 100 | > 100 | > 100 | > 100 | > 100 | > 100
C=CCN(c1cc(OC)c2[nH]c(C(=O)O)c(C)c2c1[N+](=O)[O-])S(C)(=O)=O | > 100 | > 100 | > 100 | > 100 | > 100 | > 100 | > 100 | > 100 | > 100 | > 100 | > 100 | > 100
CC(C)(C)C#CI1OC(=O)c2ccccc21 | 30.4 | 12 | 14.3 | 5.11 | 6.09 | 28.2 | 8.84 | 16 | 15.2 | 11.7 | 19.5 | 18.4
Brc1ccc(/C(N=N/C(=N\Sc2ccccc2)c2ccc(Br)cc2)=N/Sc2ccccc2)cc1 | > 100 | > 100 | > 100 | > 100 | > 100 | > 100 | > 100 | > 100 | > 100 | > 100 | > 100 | > 100
COc1ccccc1Cn1c2c(c3cc(O)ccc31)C(=O)c1ccccc1C2=O | 14.3 | > 100 | 86.1 | 45.7 | > 100 | 42.2 | > 100 | 58.8 | 79 | > 100 | 53.5 | > 100
Cc1ccc2nc(Nc3ccccc3C)c(Nc3ccccc3C)nc2c1 | > 58.1 | > 100 | > 100 | > 100 | > 80.6 | 52.3 | 52.3 | > 96.6 | > 89.7 | > 57.4 | > 100 | 45.8
Cc1cccc2c(N)c3cccc(C(=O)NCC[N+](C)(C)[O-])c3nc12 | 27.5 | > 100 | > 100 | > 100 | > 100 | 45.4 | > 100 | 9.47 | 27.8 | > 100 | 60.4 | > 100
